How the values were obtained:
IL1B = assay: Whole blood response to E. coli filtrate alone and with polymyxin B (FIG. 34); assay type: cell-based, human; details: polymyxin B added to E. coli filtrate
Description: FIGS. 27 through 41 illustrate the use of gene expression panels in early identification and monitoring of infectious disease. These figures plot the response, in expression products of the genes indicated, in whole blood, to the administration of various infectious agents or products associated with infectious agents. In each figure, the gene expression levels are “calibrated”, as that term is defined herein, in relation to baseline expression levels determined with respect to the whole blood prior to administration of the relevant infectious agent. In this respect the figures are similar in nature to various figures of our below-referenced patent application WO 01/25473 (for example, FIG. 15 therein). The concentration change is shown ratiometrically, and the baseline level of 1 for a particular gene locus corresponds to an expression level for such locus that is the same, monitored at the relevant time after addition of the infectious agent or other stimulus, as the expression level before addition of the stimulus. Ratiometric changes in concentration are plotted on a logarithmic scale. Bars below the unity line represent decreases in concentration and bars above the unity line represent increases in concentration, the magnitude of each bar indicating the magnitude of the ratio of the change. […]
The responses were monitored at 2, 6, and 24 hours after administration. […]

[1] = test system: Inflammation Gene Expression Panel of Table 1; assay: Inflammation index of stable rheumatoid arthritis patients under three treatment regimens (FIGS. 21-23); assay type: in vivo, human; details: for inflammation index compared to normal: 10 stable rheumatoid arthritis patients per treatment group
Description: (§1) FIG. 17A further illustrates the consistency of inflammatory gene expression, illustrated here with respect to 7 loci of (of the Inflammation Gene Expression Panel of Table 1), in a population of 44 normal, undiagnosed blood donors. For each individual locus is shown the range of values lying within ±2 standard deviations of the mean expression value, which corresponds to 95% of a normally distributed population. Notwithstanding the great width of the confidence interval (95%), the measured gene expression value (ΔCT)—remarkably—still lies within 10% of the mean, regardless of the expression level involved. As described in further detail below, for a given biological condition an index can be constructed to provide a measurement of the condition. This is possible as a result of the conjunction of two circumstances: (i) there is a remarkable consistency of Gene Expression Profiles with respect to a biological condition across a population and (ii) there can be employed procedures that provide substantially reproducible measurement of constituents in a Gene Expression Panel giving rise to a Gene Expression Profile, under measurement conditions wherein specificity and efficiencies of amplification for all constituents of the panel are substantially similar and which therefore provides a measurement of a biological condition. Accordingly, a function of the expression values of representative constituent loci of FIG. 17A is here used to generate an inflammation index value, which is normalized so that a reading of 1 corresponds to constituent expression values of healthy subjects, as shown in the right-hand portion of FIG. 17A.
This subject in fact was also on a regimen of an anti-inflammation steroid (prednisone) that was being tapered; within approximately one week after the inflammation index was sampled, the subject experienced a significant flare of clinical symptoms.

[2] = test system: Inflammation Gene Expression Panel of Table 1; details: studies have shown; some subjects; cited from earlier work
[3] = test system: Inflammation Gene Expression Panel of Table 1; assay: Inflammation index of a single subject with inflammatory bowel disease treated with Remicade (FIG. 24); assay type: in vivo, human
Description: as §1
FIG. 24 illustrates use of the inflammation index for assessment of a single subject suffering from inflammatory bowel disease, for whom treatment with Remicade was initiated in three doses. […] Again, the index, besides providing a measure of biological condition, is here used to measure the effectiveness of therapy (Remicade), as well as to provide a target for therapeutic intervention in terms of both dose and schedule.

[4] = test system: Inflammation Gene Expression Panel of Table 1; assay: Inflammatory gene expression in whole blood of a human subject after a single oral dose of prednisone (FIG. 14); assay type: in vivo
Description: (§2) For measuring the amount of a particular RNA in a sample, we have used methods known to one of ordinary skill in the art to extract and quantify transcribed RNA from a sample with respect to a constituent of a Gene Expression Panel. (See detailed protocols below. Also see PCT application publication number WO 98/24935 herein incorporated by reference for RNA analysis protocols). Briefly, RNA is extracted from a sample such as a tissue, body fluid, or culture medium in which a population of a subject might be growing. For example, cells may be lysed and RNA eluted in a suitable solution in which to conduct a DNAse reaction. First strand synthesis may be performed using a reverse transcriptase. Gene amplification, more specifically quantitative PCR assays, can then conducted and the gene of interest size calibrated against a marker such as 18S rRNA (Hirayama et al., Blood 92, 1998: 46-52). Samples are measured in multiple duplicates, for example, 4 replicates. Relative quantitation of the mRNA is determined by the difference in threshhold cycles between the internal control and the gene of interest. In an embodiment of the invention, quantitative PCR is performed using amplification, reporting agents and instruments such as those supplied commercially by Applied Biosystems (Foster City, Calif.). […]

[5] = test system: 5 genes (of the Inflammation Gene Expression Panel of Table 1); assay: Gene expression in whole blood samples from a subject given prednisone, challenged with lipopolysaccharide (FIG. 15); assay type: in vivo, human; details: blood challenged with 0.1 ng/ml lipopolysaccharide
Description: For measuring the amount of a particular RNA in a sample, we have used methods known to one of ordinary skill in the art to extract and quantify transcribed RNA from a sample with respect to a constituent of a Gene Expression Panel. (See detailed protocols below. Also see PCT application publication number WO 98/24935 herein incorporated by reference for RNA analysis protocols). Briefly, RNA is extracted from a sample such as a tissue, body fluid, or culture medium in which a population of a subject might be growing. For example, cells may be lysed and RNA eluted in a suitable solution in which to conduct a DNAse reaction. First strand synthesis may be performed using a reverse transcriptase. Gene amplification, more specifically quantitative PCR assays, can then conducted and the gene of interest size calibrated against a marker such as 18S rRNA (Hirayama et al., Blood 92, 1998: 46-52). Samples are measured in multiple duplicates, for example, 4 replicates. Relative quantitation of the mRNA is determined by the difference in threshhold cycles between the internal control and the gene of interest. In an embodiment of the invention, quantitative PCR is performed using amplification, reporting agents and instruments such as those supplied commercially by Applied Biosystems (Foster City, Calif.). Given a defined efficiency of amplification of target transcripts, the point (e.g., cycle number) that signal from amplified target template is detectable may be directly related to the amount of specific message transcript in the measured sample. Similarly, other quantifiable signals such as fluorescence, enzyme activity, disintegrations per minute, absorbance, etc., when correlated to a known concentration of target templates (e.g., a reference standard curve) or normalized to a standard with limited variability can be used to quantify the number of target templates in an unknown sample.
Specific RNAs are amplified using message specific primers or random primers. […]

[6] = test system: IL1A, IL1B, TNF, IFNG and IL10; assay: Acute Inflammation Index from blood of a single patient treated for optic neuritis (FIG. 2); assay type: in vivo, human; details: single patient with optic neuritis
Description: as §2

[7] = 10 stable rheumatoid arthritis patients

polymyxin B
effect on the response of IL1B locus to E. coli filtrate (IL1B): did not affect the response

CN(Cc1cnc2nc(N)nc(N)c2n1)c1ccc(C(=O)N[C@@H](CCC(=O)O)C(=O)O)cc1 [methotrexate]
inflammation index compared to normal [1]: elevated compared to normal

Remicade: another TNF inhibitor
abnormally low inflammation index in two of the patients [1, 7]: suggesting an immunosuppressive response | inflammation index compared to normal [1]: all but one of the patients being treated with Remicade have an inflammation index at or below normal | association with infections in studies [2]: associated with serious infections in some subjects | inflammation index ([3]; 24 hours after the first treatment): returned to the normal range | inflammation index ([3]; just prior to the second dose): elevated | inflammation index ([3]; prior to the third dose): in the normal range

C[C@]12C=CC(=O)C=C1CC[C@@H]1[C@@H]2C(=O)C[C@@]2(C)[C@H]1CC[C@]2(O)C(=O)CO [prednisone]
expression of inflammation-related gene loci relative to baseline sample ([4]; 2 hr post single 60 mg oral dose): decreased expression of most of inflammation-related gene loci | expression of inflammation-related gene loci relative to baseline sample ([4]; 24 hr post single 60 mg oral dose, loci with reduced expression at 2 hours): elevated gene expression levels | gene expression of the 5 loci in relation to t=0 ([5]; 24 hours post administration): inhibitory effect of the prednisone is no longer apparent | loci at which gene expression is higher than at t=0 (rebound effect) ([5]; 24 hours post administration): 3 of the 5 loci | gene expression of the 5 loci in relation to t=0 ([5]; two hours after single dose): dramatically reduced gene expression | acute inflammation index ([6]; oral prednisone at 60 mg per day tapered to 10 mg per day): goes up

C[C@H]1C[C@@H]2[C@H]([C@@H](O)C[C@@]3(C)[C@H]2CC[C@]3(O)C(=O)COC(=O)CCC(=O)O)[C@@]2(C)C=CC(=O)C=C12 [solumedrol]
acute inflammation index ([6]; treatment with IV solumedrol at 1 gram per day): falls rapidly

Enbrel
patients with inflammation index in the normal range [1, 7]: 80% | inflammation index compared to normal [1]: comes much closer to normal

— patent US7957909B2, “Identification, monitoring and treatment of disease and characterization of biological condition using gene expression profiles” (Source Precision Medicine, Inc., priority 1999, dated 2011)
